This note sets out measurements from patent US8877773B2, “Methods for treating chronic obstructive pulmonary disease” (Indiana University Research and Technology Corporation, priority 2009, dated 2014).

In one data set the test system is control rats. Kind of data set: Baseline behavior and cardiovascular activity in control rats. The class given is in vivo, rat. As to conditions: control rats (no 1-AG or NaLac), 30 mg/kg i.p., 30 min following injection. As to the method: In experiments 4-6, rats were made panic vulnerable with 1-AG. 5 days after 1-AG onset, in a counterbalanced design, rats received intraperitoneal (i.p.) injections of treatment drug or vehicle 30 min prior to i.v. infusions. […] In experiment 5, baseline in an open field (OF) behavior test of anxiety was assessed (n=8) prior to 1-AG infusions. […] Immediately following the NaLac challenge, rats were placed in the OF test. […] In experiment 6,1-AG treated rats received an injection of an alternative ORX1 receptor antagonist (30 mg/kg SB408124 (N-(6,8-Difluoro-2-methyl-4-quinolinyl)-N′-(4-(dimethylamino)phenyl)urea), Tocris, in 0.2 ml/100 g volume DMSO, n=4) or vehicle (0.2 ml/100 g volume DMSO, n=6) 30 min prior to NaLac. In experiment 7, control rats (no 1-AG or NaLac treatment) were assessed in a SI test.
Adult male Sprague-Dawley rats were anesthetized and surgically implanted with telemetrical probes to measure cardiovascular activity prior to and during lactate infusions. […] 1960, Tocris, in 0.2 ml/100 g volume DMSO, n=7] or vehicle (0.2 ml/100 g volume DMSO, n=7). Cardiovascular activity and SI tests were monitored 30 min following injection at similar time points.

Data set [1] concerns rats exposed to hypercarbic gas. Kind of data set: Hypercarbic gas (20% CO2) challenge: open-field test. It counts as in vivo, rat. As to conditions: 30 mg/kg i.p. The method, then:
On day 1, rats (n=3/group) were selected from their home cages and placed into experimental cages containing atmospheric air. […] Fecal pellets were counted in cages at the end of gas challenges. In order to assess anxiety-like behavioural responses following exposure to hypercarbic gas, rats were immediately transferred to an adjacent room and place in the center square of an open-field box for a 5 min test. On day 2, the experiment was repeated, but the treatments were reversed for each rat. For instance, rats that received atmospheric gas challenge on day 1 received the hypercapnic gas challenge on day 2.
The open-field arena covered an area of 90 cm×90 cm, with 40 cm high walls. The open-field arena was divided into a 6×6 grid of equally-sized squares using black tape (36 total squares) with 4 squares forming the center; 12 squares forming the middle perimeter; and 20 squares forming the outer perimeter. The test started by placing a rat in the center. The behavior of each rat in the open-field arena was recorded on video and scored afterwards by an observer (PLJ) blind to the experimental treatment of each rat. Time spent in each region of the open-field was recorded. In addition, locomotor activity was assessed by counting the number of times the rat's entire body (excluding tail) completely crossed into another square.
All rats received hypercarbic gas infusions as described in detail in Experiment 11. […] Blood pressure, heart rate, locomotor activity, number of fecal pellets and anxiety-like behavior were assessed as described in Experiment 11.
Dependent variables for analyses of cardiovascular responses (HR, MAP) and locomotor activity were analysed using a […], using gas infusion as the between-subjects factor and time as a within-subjects factor. Dependent variables for the number of fecal pellets and open-field anxiety test (i.e., time spent in each section, line crossings) were analysed using a one-way ANOVA with gas infusion in Experiment 11 and drug treatment in Experiment 12 as the between-subjects factors. […] Within-subjects comparisons were also made on the MAP and HR measures using a Dunnett's test for multiple comparisons with a single control using the 5 Min baseline measurement as the control. The alpha level was set at 0.05 in all cases.

“Also recorded” adds a separate entry of the source.

As to `Cc1nc2ccc(NC(=O)Nc3ccnc4cccnc34)cc2o1` [SB334867, N-(2-Methyl-6-benzoxazolyl)-N′-1,5-naphthyridin-4-yl urea], in the data set with control rats, the “HR in control rats” value is “had no effect; also recorded: does not alter; also recorded: did not alter” and the “MAP in control rats” value is recorded as “had no effect; also recorded: does not alter; also recorded: did not alter”. In addition, in data set [1] (between groups), the “time spent in the center of open field after hypercarbic gas” value is “No differences” and the “time spent in the outer perimeter of open field after hypercarbic gas” value is “No differences”. Moreover, in data set [1] (20% CO2/normoxic gas), the “hypercapnic gas-induced anxiety responses” value was “attenuated”. In addition, the “time in the middle perimeter region of open field after hypercarbic gas” value in data set [1] (SB/CO2 vs Veh/CO2 group) is “significantly more time”.
